What was measured:
[1] = biological target: T1, Metallo-beta-lactamase type 2 [29-270] (Klebsiella pneumoniae, UniProt C7C422); assay: Enzyme Inhibition Assay
T1 construct: 29-270
Method: (§1) Freshly prepared Zn2-NDM-1 (50 nM) or Zn2-VIM-2 were first incubated with various concentrations of Bi(III) compounds for 1 h at 25° C. The assay was performed in a 1 cm quartz cuvette using the kinetic mode of Varian Cary 50 UV-visible spectrophotometer at 25° C. The final assay buffer contains 50 mM HEPES/Na pH 7.0, 100 mM NaCl and 100 μM MER. The decrease in absorbance at 300 nm due to ring-opening of MER was monitored every second for a duration of 10 mins until the reaction was completed. The initial rate were extracted and calculated from each reaction curves.

[2] = biological target: T2, Metallo-beta-lactamase VIM-2 [21-266] (Klebsiella pneumoniae, UniProt Q3Y6Q3); assay: Enzyme Inhibition Assay
T2 construct: 21-266
Method: as §1

T1 sequence (C7C422 29-270): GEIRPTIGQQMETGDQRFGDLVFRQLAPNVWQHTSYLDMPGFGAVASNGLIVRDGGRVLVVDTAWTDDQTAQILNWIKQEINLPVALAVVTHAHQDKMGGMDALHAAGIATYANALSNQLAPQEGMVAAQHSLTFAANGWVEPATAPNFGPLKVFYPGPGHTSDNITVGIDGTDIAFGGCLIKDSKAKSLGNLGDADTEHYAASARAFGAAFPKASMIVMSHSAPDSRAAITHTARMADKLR

## [Bi+3] [US10624871, Compound Bi(NO3)3]
[1]
  IC50: 1.89 µM
[2]
  IC50: 2.45 µM

## O=C(O)C[C@@](O)(CC(O)O)C(=O)O [US10624871, Compound 10]
[1]
  IC50: 5.83 µM
[2]
  IC50: 44.5 µM

## C[C@H](CS)C(=O)N1CCC[C@H]1C(=O)O [US10624871, Compound 15]
[2]
  IC50: 6.17 µM

## CC(=O)N[C@@H](CS)C(=O)O [US10624871, Compound 21]
[1]
  IC50: 17.7 µM

— BindingDB's records for patent US10624871 (The University of Hong Kong, 2020)
